Experimental data published in patent US8680122B2, “Substituted pyrrolones as allosteric modulators of glucokinase” (Janssen Pharmacetica N.V., priority 2005, dated 2014).

Experiments:
Pancreas GK = target: T1, Pancreas GK (Homo sapiens, UniProt P35557); assay: Glucokinase enzyme assay, pancreas GK; assay type: biochemical; details: for EC50: concentration that produces 50% activation above the vehicle control; for EC100%: concentration that produces 100% activation above the vehicle control; for activation at 50 µM: percentage increase in GK activity above vehicle control, compound 50 μM, 12 mM glucose
T1 construct: (His)6; made in house; host or cells: Escherichia coli
T1 sequence (P35557 1-465): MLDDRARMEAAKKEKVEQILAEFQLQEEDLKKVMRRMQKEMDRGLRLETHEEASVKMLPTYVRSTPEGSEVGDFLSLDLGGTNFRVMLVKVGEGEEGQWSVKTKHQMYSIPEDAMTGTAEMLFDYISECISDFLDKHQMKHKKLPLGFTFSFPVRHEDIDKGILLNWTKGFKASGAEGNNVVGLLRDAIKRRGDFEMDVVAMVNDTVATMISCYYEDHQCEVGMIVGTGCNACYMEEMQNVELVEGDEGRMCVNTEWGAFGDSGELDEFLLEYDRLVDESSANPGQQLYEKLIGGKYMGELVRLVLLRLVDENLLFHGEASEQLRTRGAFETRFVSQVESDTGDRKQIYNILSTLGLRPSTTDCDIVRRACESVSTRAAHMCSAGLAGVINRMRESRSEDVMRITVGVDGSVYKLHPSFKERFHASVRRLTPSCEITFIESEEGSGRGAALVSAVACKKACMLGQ
Text: (§1) An enzymatic Glucokinase (GK) assay using purified recombinant human liver/pancreas enzyme was used to evaluate the effects of potential small molecule modulators.
(§2) In this assay, GK catalyzes glucose phosphorylation in the presence of ATP. The product of this reaction, glucose-6-phosphate, was then oxidized by an excess of glucose-6-phosphate dehydrogenase to produce gluconate-6-phosphate with concomitant reduction of nicotinamide adenine dinucleotide (NAD). […] Human GK (Liver/Pancreas) was expressed in Escherichia coli as a (His) 6-tagged fusion protein and was purified by metal chelate affinity chromatography. The assay was performed in a final incubation volume of 80 μl in a 96-well clear low UV absorption plates. The incubation mixture consisted of 25 mM HEPES, 2 mM MgSO4, 1 mM dithiothreotol (DTT), 1 mg/mL bovine serum albumin (BSA), 1 mM ATP, 1 mM NAD, and 12 mM glucose, 10 units per mL glucose-6-phosphate dehydrogenase, and +/−300 ng per mL GK. For determination of the affinity (Km) and Vmax, different concentrations of glucose ranging from 0.5 mM to 40 mM were used in the assay; see Grimsby, J., Sarabu, R.; Grippo, J. F.; et. al. Science 2003, 301, 370-373. Production of reduced NAD (Nicotinamide Adenine Dinucleotide) was measured as changes in absorption at 340 nm in 96-well plate reader (Envision model #2101 Multilabel Plate reader). % Activation @ 50 μM was calculated as the percentage increase in GK activity above the vehicle control with the effective concentration of the compound being 50 μM. EC50% (μM) was calculated as the effective concentration of the compound that produces 50% activation above the vehicle control, and EC100% (μM) was calculated as the effective concentration of the compound that produces 100% activation above the vehicle control.

Liver GK = target: T2, Liver GK (Homo sapiens, UniProt P35557); assay: Glucokinase enzyme assay, liver GK; assay type: biochemical; details: for EC50: concentration that produces 50% activation above the vehicle control; for EC100%: concentration that produces 100% activation above the vehicle control; for activation at 50 µM: percentage increase in GK activity above vehicle control, compound 50 μM, 12 mM glucose
T2 construct: (His)6; made in house; host or cells: Escherichia coli
T2 sequence (P35557 1-466 isoform P35557-2): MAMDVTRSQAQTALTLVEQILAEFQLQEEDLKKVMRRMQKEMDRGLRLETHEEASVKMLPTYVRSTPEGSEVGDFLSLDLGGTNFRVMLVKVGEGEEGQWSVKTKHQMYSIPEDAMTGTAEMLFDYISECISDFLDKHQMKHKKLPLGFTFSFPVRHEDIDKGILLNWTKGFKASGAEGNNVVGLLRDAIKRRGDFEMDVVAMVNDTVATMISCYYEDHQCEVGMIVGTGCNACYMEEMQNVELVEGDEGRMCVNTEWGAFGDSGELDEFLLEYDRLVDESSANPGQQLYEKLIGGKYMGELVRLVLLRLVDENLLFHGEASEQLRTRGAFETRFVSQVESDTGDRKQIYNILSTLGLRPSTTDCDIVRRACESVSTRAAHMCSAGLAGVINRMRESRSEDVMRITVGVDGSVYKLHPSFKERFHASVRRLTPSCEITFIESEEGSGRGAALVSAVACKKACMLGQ
Text: as §1, §2

Structure (SMILES)	EC50 (Pancreas GK)	EC100% (Pancreas GK)	EC50 (Liver GK)	EC100% (Liver GK)	activation at 50 µM (Pancreas GK)	activation at 50 µM (Liver GK)
COc1ccc(CN2C(=O)C(C)=C(C)C2SCC(=O)Nc2cc(C)ccn2)cc1 (stereo not drawn) [Compound 21, 2-[1-(4-Methoxy-benzyl)-3,4-dimethyl-5-oxo-2,5-dihydro-1H-pyrrol-2-ylsulfanyl]-N-(4-methyl-pyridin-2-yl)-acetamide]	7.12 µM	19.43 µM	4.73 µM	12.68 µM		
CCc1ccnc(NC(=O)CSC2C(C)=C(C)C(=O)N2Cc2ccc(OC)cc2)c1 (stereo not drawn) [Compound 22, N-(4-Ethyl-pyridin-2-yl)-2-[1-(4-methoxy-benzyl)-3,4-dimethyl-5-oxo-2,5-dihydro-1H-pyrrol-2-ylsulfanyl]-acetamide]	24.1 µM		17.3 µM		70%	82%
COc1ccc(CN2C(=O)C(C)=C(C)C2SCC(=O)Nc2cccc(C)n2)cc1 (stereo not drawn) [Compound 23, 2-[1-(4-Methoxy-benzyl)-3,4-dimethyl-5-oxo-2,5-dihydro-1H-pyrrol-2-ylsulfanyl]-N-(6-methyl-pyridin-2-yl)-acetamide]	8.13 µM	20.28 µM	6.23 µM	13.78 µM		
CC1=C(C)C(SCC(=O)Nc2ccccn2)N(Cc2ccc(C(C)C)cc2)C1=O (stereo not drawn) [Compound 25, 2-[1-(4-Isopropyl-benzyl)-3,4-dimethyl-5-oxo-2,5-dihydro-1H-pyrrol-2-ylsulfanyl]-N-pyridin-2-yl-acetamide]	14.7 µM	44.9 µM	6.3 µM	28.5 µM	130%	180%
COC(=O)c1ccc(NC(=O)COC2C(C)=C(C)C(=O)N2Cc2ccc(OC)cc2)nc1 (stereo not drawn) [Compound 27, 6-{2-[1-(4-Methoxy-benzyl)-3,4-dimethyl-5-oxo-2,5-dihydro-1H-pyrrol-2-yloxy]-acetylamino}-nicotinic acid methyl ester]	20 µM	>50 µM	14.1 µM	>50 µM		90%
COc1ccc(CN2C(=O)C(C)=C(C)C2OCC(=O)Nc2ccc(C)cn2)cc1 (stereo not drawn) [Compound 28, 2-[1-(4-Methoxy-benzyl)-3,4-dimethyl-5-oxo-2,5-dihydro-1H-pyrrol-2-yloxy]-N-(5-methyl-pyridin-2-yl)-acetamide]	18.5 µM	>50 µM	14.2 µM	>50 µM		90%
COc1cc(CN2C(=O)C(C)=C(C)C2SCC(=O)Nc2ccccn2)cc(OC)c1 (stereo not drawn) [Compound 29, 2-[1-(3,5-Dimethoxy-benzyl)-3,4-dimethyl-5-oxo-2,5-dihydro-1H-pyrrol-2-ylsulfanyl]-N-pyridin-2-yl-acetamide]	11.8 µM	41.4 µM	7.7 µM	26.1 µM		
COc1ccc(CN2C(=O)C(C)=C(C)C2OCC(=O)Nc2ccccn2)cc1 (stereo not drawn) [Compound 30, 2-[1-(4-Methoxy-benzyl)-3,4-dimethyl-5-oxo-2,5-dihydro-1H-pyrrol-2-yloxy]-N-pyridin-2-yl-acetamide]	> 50 µM	>50 µM	34.5 µM	>50 µM		

Second part, the compound after the results:

EC50 (Pancreas GK)	EC100% (Pancreas GK)	EC50 (Liver GK)	EC100% (Liver GK)	activation at 50 µM (Pancreas GK)	activation at 50 µM (Liver GK)	Structure (SMILES)
15.2 µM	47.3 µM	13.8 µM	30.5 µM			COc1ccc(CN2C(=O)C=C(C)C2SCC(=O)Nc2ccccn2)cc1 (stereo not drawn) [Compound 19, 2-[1-(4-Methoxy-benzyl)-3-methyl-5-oxo-2,5-dihydro-1H-pyrrol-2-ylsulfanyl]-N-pyridin-2-yl-acetamide]
3.23 µM	8.87 µM	2.78 µM	6.61 µM			CC1=C(C)C(SCC(=O)Nc2ccccn2)N(Cc2ccc3c(c2)CCO3)C1=O (stereo not drawn) [Compound 20, 2-[1-(2,3-Dihydro-benzofuran-5-ylmethyl)-3,4-dimethyl-5-oxo-2,5-dihydro-1H-pyrrol-2-ylsulfanyl]-N-pyridin-2-yl-acetamide]
13.6 µM	37.3 µM	8.4 µM	26.7 µM	124%	172%	CC1=C(C)C(SCC(=O)Nc2ccccn2)N(Cc2cccs2)C1=O (stereo not drawn) [Compound 24, 2-(3,4-Dimethyl-5-oxo-1-thiophen-2-ylmethyl-2,5-dihydro-1H-pyrrol-2-ylsulfanyl)-N-pyridin-2-yl-acetamide]
24 µM		15.3 µM	35.9 µM	102%	154%	CCc1ccc(CN2C(=O)C(C)=C(C)C2SCC(=O)Nc2ccccn2)cc1 (stereo not drawn) [Compound 26, 2-[1-(4-Ethyl-benzyl)-3,4-dimethyl-5-oxo-2,5-dihydro-1H-pyrrol-2-ylsulfanyl]-N-pyridin-2-yl-acetamide]
				3%	21%	COc1ccc(CN2C(=O)C(C)=C(C)C2OCC(=O)Nc2nccs2)cc1 (stereo not drawn) [Compound 31, 2-[1-(4-Methoxy-benzyl)-3,4-dimethyl-5-oxo-2,5-dihydro-1H-pyrrol-2-yloxy]-N-thiazol-2-yl-acetamide]
